Reference: patent publication US9872833B2, “Liposome composite body” (National University Corporation Tottori University, priority 2011, dated 2018)

What was measured:
[1] = Fluorescence spectrum of liposome dispersions; format: physicochemical; conditions: liposome dispersion; excitation wavelength 736 nm
Procedure: (1) Fluorescence Spectrum
Dispersion of Liposome Including ICG (ICG
(§1) A chloroform/methanol (9:1, v/v) solution containing 10.0 mM of egg yolk-derived phosphatidylcholine and 3.2×10^−2 mM of ICG (Diagnogreen injection, Daiichi Sankyo) was prepared; 3 mL thereof was subjected to the distillation off of the solvent under reduced pressure; and 3 mL of a physiological saline was added to the formed thin membrane, which was then treated using a filter having a pore diameter of 0.22 μm to provide liposomes.
(§2) Dispersion of Liposome Having ICG-8 in Lipid Bilayer Membrane (LP-ICG-8)
as §1, with “ICG-8” for “ICG (Diagnogreen injection, Daiichi Sankyo)”
When the above liposome dispersions were measured for fluorescence spectra (Jasco FP-6600), fluorescence spectra as shown in FIG. 2 were obtained at an excitation wavelength of 736 nm. The maximum fluorescence wavelength for ICG was 852 nm, and the maximum fluorescence wavelength for ICG-8 was 854 nm.

[2] = Measurement of singlet oxygen; format: physicochemical; conditions: excitation wavelength 690 nm, 20 mW; singlet oxygen detected at 1,270 nm
Procedure: The measurement conditions are as follows.
Excitation was carried out with a dye laser using an excitation wavelength of 690 nm, an average output of 20 mW, a repetition frequency of 30 Hz, a pulse width of about […], and DCM.
For detection, light was dispersed by a spectroscope (focal distance: 250 mm, grating: 600 L/mm) using a gated near-infrared image intensifier (NIR-PII) cooled at −80° C., followed by measurement for 200 microseconds from 30 microseconds after excitation.
In FIG. 10, the red line indicates the generation of singlet oxygen (1,270 nm) derived from ICG-8, and the blue line indicates singlet oxygen scavenging by β-carotene (concentration: 4 μM).
(§3) The measurement conditions were as follows.
In FIG. 12, the red line indicates the generation of singlet oxygen (1,270 nm) derived from ICG-11, and the blue line indicates singlet oxygen scavenging by β-carotene (concentration: 6 μM).

[3] = Fluorescence spectral characteristic of ICG-11 in polar and non-polar solvent; format: physicochemical; conditions: 1 μM; for fluorescence emission: in chloroform as non-polar solvent
Procedure: (1) Fluorescence Spectral Characteristic of ICG-11
The physical properties of ICG-11 were examined in aqueous solutions different in polarity in comparison with ICG.
(a) Comparison in Methanol as Polar Solvent
(b) Comparison in Chloroform as Non-Polar Solvent
In FIG. 11, the black and red lines indicate the results for ICG-11 (concentration: 1 μM) and ICG (concentration: 1 μM), respectively.

[4] = tested on: cancer (glioma) under the skin using the brain tumor cells 9 L; assay: Near-infrared camera image after intravenous administration (tumor accumulation); format: in vivo, rat; conditions: 500 μL through the cervical vein; 5 minutes after administration; 9 L tumor-bearing rats
Procedure: (2) Near-Infrared Camera Image after Intravenous Administration
ICG Aqueous Solution (ICG)
ICG was dissolved to 3.2 mM in pure water and diluted by 100-fold with a physiological saline.
as §2
A chloroform/methanol (9:1, v/v) solution containing egg yolk-derived phosphatidylcholine (10.0 mM), cholesterol (1.0 mM), polyethylene glycol-modified phosphatidylethanolamine (PEG-PE) (5.0×10^−1 mM), and ICG-8 (3.2×10^−2 mM) was prepared; 5 mL thereof was evaporated under reduced pressure; 5 mL of a physiological saline was added to the formed thin membrane, which was then treated using a filter having a pore diameter of 0.22 μm; and the resultant was further treated using a filter having a pore diameter of 0.05 μm to provide liposomes.
F344/Jc1 34-36 weeks 9 L rats were used for the test. […] After cutting the hair over the tumor location, 500 μL of the ICG aqueous solution or LP-ICG-8 was administered through the cervical vein. Fluorescent observation (Hyper Eye Medical System from Mizuho Corporation, excitation wavelength: 760 to 780 nm, fluorescence wavelength: >780 nm) was carried out 5 minutes after administration (FIG. 3). The distance between each rat and the camera head was 50 cm.

[5] = Loading amount in liposome (gel filtration); format: physicochemical; conditions: liposomes formed at ICG:DOPC of 1:40 or 1:20
Procedure: The amount of ICG-11 loadable in the liposome was examined by changing the mixing ratio between ICG-11 and dioleoylphosphatidylcholine (DOPC) as the main component of the lipid bilayer membrane. For comparison, the amount of loadable ICG was examined.
In chloroform/methanol (9:1, v/v) solution were dissolved DOPC (10 mM), cholesterol (5 mM), polyethylene glycol-modified phosphatidylethanolamine (PEG-PE, 0.5 mM), and ICG-11 (0 to 5 mM) or ICG (0 to 0.5 mM); a portion of the resultant solution was dried under reduced pressure; and a physiological saline was added to the formed thin membrane, which was then treated using a filter having a pore diameter of 100 nm to provide a liposome dispersion.
The amount of incorporation of ICG-11 into the lipid bilayer membrane when it formed a liposome was measured using the following conditions.
Liposomes into which ICG-11 or ICG was incorporated and ICG-11 or ICG released into a liposome dispersion without being incorporated into the lipid bilayer membrane were separated and determined using a gel filtration column (PD-10 from GE) (FIG. 14).

[6] = Heat generating capacity of ICG-11; format: physicochemical; conditions: excitation 808 nm, 0.5 W/m^2; ICG-11 0 to 4 μM
Procedure: (3) Heat Generating Capacity of ICG-11
The heat generating capacity of […] was measured using the following conditions.
as §3
Excitation was carried out at an excitation wavelength of 808 nm and an output of 0.5 W/m^2. The temperature was measured at 1-second intervals.
In FIG. 13, the black, red, blue, and green lines indicate the results when the concentration of ICG-11 was 0 μM, 1 μM, 2 μM, and 4 μM, respectively.

Compound | maximum fluorescence wavelength [1] | singlet oxygen-producing capacity [2] | fluorescence emission [3] | accumulation in the tumor tissue (fluorescent observation) [4] | dye not incorporated into the lipid bilayer membrane [5] | heat generating capacity [6] | fluorescence compared to ICG ([3]; in methanol as polar solvent)
4-(2-((1E,3E,5E,7E)-7-(1,1-dimethyl-3-octadecyl-1H-benzo[e]indol-2(3H)-ylidene)hepta-1,3,5-trienyl)-1,1-dimethyl-1H-benzo[e]indolium-3-yl)butane-1-sulfonic acid [ICG-8] | 854 nm | had a singlet oxygen-producing capacity | – | – | – | – | –
CC1(C)C(/C=C/C=C/C=C/C=C2\N(CCCCS(=O)(=O)O)c3ccc4ccccc4c3C2(C)C)=[N+](CCCCS(=O)(=O)[O-])c2ccc3ccccc3c21 [ICG, indocyanine green, reference compound] | 852 nm | – | not emitting fluorescence | did not result in the accumulation of ICG in the tumor tissue | ICG not incorporated into the lipid bilayer membrane increased in the dispersion | – | –
CCCCCCCC/C=C\CCCCCCCC(=O)OC[C@H](COP(=O)(O)OCCNC(=O)CCN1/C(=C/C=C/C=C/C=C/C2=[N+](CCCCS(=O)(=O)O)c3ccc4ccccc4c3C2(C)C)C(C)(C)c2c1ccc1ccccc21)OC(=O)CCCCCCC/C=C\CCCCCCCC [ICG-11, 4-(2-((1E,3E,5E,7E)-7-(3-(2-(1,2-dioleoyl-sn-glycero-3-phosphoethanolaminocarbonyl)ethyl)-1,1-dimethyl-1H-benzo[e]indol-2(3H)-ylidene)hepta-1,3,5-trienyl)-1,1-dimethyl-1H-benzo[e]indolium-3-yl)butane-1-sulfonic acid] | – | had a singlet oxygen-producing capacity | sufficiently strong fluorescence | – | – | had a heat-generating capacity (increasing the tissue temperature from 37 °C to 43° C.) | 1.5 fold
